{"source": "patent US20240018163A1", "about": "“NEW THIAZOLOPYRIMIDINONE DERIVATIVES” (Hoffmann-La Roche Inc., priority 2021, published 2024)", "note": "pEC50: −log10 of the molar value."}
{"test_system": "mutant HTT protein (mHTT)", "experiment": "Homogeneous Time Resolved Fluorescence (HTRF) assay for HTT lowering", "format": "cell-based", "settings": "reduction of mHTT in Huntington patient human cells (GENEAe020-A cell line), 48 hours incubation, mean from three replicates", "method": "Homogeneous Time Resolved Fluorescence for HTT lowering\nThe HTRF assay was adapted from Weiss et al. (Analytical Biochemistry Volume 395, Issue 1, 1 Dec. 2009, Pages 8-15 and Analytical Biochemistry Volume 410, 2011, Pages 304-306) to cells from GENEAe020-A cell line (https://hpscreg.eu/cell-line/GENEAe020-A).\nCompounds were tested for the effect of mutant HTT levels in Huntington patient human cells (GENEAe020-A cell line) using Homogeneous Time Resolved Fluorescence (HTRF) directed towards mutant HTT protein (mHTT). The GENEAe020-A cell line was derived by Genea Biocells from human blastocysts of HD donors. After assessing viability, cells were plated into 384 well collagen coated plates in growth media. Once cells adhered, media was removed and test compounds dissolved in DMSO were diluted with buffer solution and added to the adherent cells. Controls included experiments with no cells, DMSO with no compound, and Hsp90 inhibitor control. Cells were incubated with compounds and controls for 48 hours. Then, the cells were lysed and transferred to an assay plate containing HTRF labeled monoclonal antibodies developed by Paul Patterson (Ko et al., Brain Research Bulletin, Volume 56, Numbers 3 and 4, 2001, Pages 319-329) which recognize specific areas of the HTT protein. The terbium labeled “donor” antibody (2B7) binds to the N-terminus of the HTT protein and the Alexa488 labeled “acceptor” antibody (MW1) is specific for the polyglutamine region of the protein. Binding of the acceptor labeled antibody is more efficient for the extended polyglutamine repeats of mutant HTT protein which translates into a signal boost which enables the specific measurement of mutant HTT protein level. The HTRF donor and acceptor detection reagents were incubated with the cell lysate and the ratio between the signals of the two fluorophores is indicative of the relative quantities of mHTT."}
{"smiles": "Cc1cn2nc(-c3cc(=O)n4cc([C@@H]5CCNC[C@@H]5F)sc4n3)cc(C)c2n1", "note": "[Example 32, 7-(2,8-dimethylimidazo[1,2-b]pyridazin-6-yl)-2-[(3R,4R)-3-fluoro-4-piperidyl]thiazolo[3,2-a]pyrimidin-5-one]", "pEC50": 7.48}
{"smiles": "Cc1cn2nc(-c3cc(=O)n4cc(N5CCNCC5)sc4n3)cc(C(C)C)c2n1", "note": "[Example 23, 7-(8-isopropyl-2-methyl-imidazo[1,2-b]pyridazin-6-yl)-2-piperazin-1-yl-thiazolo[3,2-a]pyrimidin-5-one]", "pEC50": 6.17}
{"smiles": "COc1cc(-c2cc(=O)n3cc([C@H]4CCNC5(CC5)C4)sc3n2)nn2cc(C)nc12", "note": "[Example 40, 7-(8-methoxy-2-methyl-imidazo[1,2-b]pyridazin-6-yl)-2-[(7S)-4-azaspiro[2.5]octan-7-yl]thiazolo[3,2-a]pyrimidin-5-one]", "pEC50": 7.08}
{"smiles": "Cc1cn2nc(-c3cc(=O)n4cc(C5(F)CCNCC5)sc4n3)cc(C)c2n1", "note": "[Example 26, 7-(2,8-dimethylimidazo[1,2-b]pyridazin-6-yl)-2-(4-fluoro-4-piperidyl)thiazolo[3,2-a]pyrimidin-5-one]", "pEC50": 6.89}
{"smiles": "COc1cc(-c2cc(=O)n3cc(N4CCNCC4)sc3n2)nn2cc(C)nc12", "note": "[Example 13, 7-(8-methoxy-2-methyl-imidazo[1,2-b]pyridazin-6-yl)-2-piperazin-1-yl-thiazolo[3,2-a]pyrimidin-5-one]", "pEC50": 6.93}
{"smiles": "COc1cc(-c2cc(=O)n3cc([C@H]4C[C@H]5CNC[C@@H](C4)O5)sc3n2)nn2cc(C)nc12", "note": "[Example 50, 7-(8-methoxy-2-methyl-imidazo[1,2-b]pyridazin-6-yl)-2-[rac-(1S,5R)-9-oxa-3-azabicyclo[3.3.1]nonan-7-yl]thiazolo[3,2-a]pyrimidin-5-one]", "pEC50": 7.24}
{"smiles": "Cc1nc2c(C)cc(-c3cc(=O)n4cc(N5CCNCC5)sc4n3)nc2o1", "note": "[Example 20, 7-(2,7-dimethyloxazolo[5,4-b]pyridin-5-yl)-2-piperazin-1-yl-thiazolo[3,2-a]pyrimidin-5-one]", "pEC50": 6.87}
{"smiles": "Cc1cn2nc(-c3cc(=O)n4cc(C5CCNCC5)sc4n3)cc(C)c2n1", "note": "[Example 24, 7-(2,8-dimethylimidazo[1,2-b]pyridazin-6-yl)-2-(4-piperidyl)thiazolo[3,2-a]pyrimidin-5-one]", "pEC50": 7.55}
{"smiles": "COc1cc(-c2cc(=O)n3cc([C@@H]4CCNC[C@@H]4F)sc3n2)nn2cc(C)nc12", "note": "[Example 34, 7-(8-methoxy-2-methyl-imidazo[1,2-b]pyridazin-6-yl)-2-[(3R,4R)-3-fluoro-4-piperidyl]thiazolo[3,2-a]pyrimidin-5-one]", "pEC50": 7.66}
{"smiles": "Cc1cn2nc(-c3cc(=O)n4cc(N5CCNCC5)sc4n3)cc(OC(F)F)c2n1", "note": "[Example 27, 7-[8-(difluoromethoxy)-2-methyl-imidazo[1,2-b]pyridazin-6-yl]-2-piperazin-1-yl-thiazolo[3,2-a]pyrimidin-5-one]", "pEC50": 7.17}
{"smiles": "Cc1cn2nc(-c3cc(=O)n4cc(N5CCC6(CCNCC6)C5)sc4n3)cc(C)c2n1", "note": "[Example 22, 2-(2,8-diazaspiro[4.5]decan-2-yl)-7-(2,8-dimethylimidazo[1,2-b]pyridazin-6-yl)thiazolo[3,2-a]pyrimidin-5-one]", "pEC50": 5.88}
{"smiles": "Cc1nc2c(C)cc(-c3cc(=O)n4cc([C@@H]5CCNC[C@@H]5F)sc4n3)nc2o1", "note": "[Example 44, 7-(2,7-dimethyloxazolo[5,4-b]pyridin-5-yl)-2-[(3R,4R)-3-fluoro-4-piperidyl]thiazolo[3,2-a]pyrimidin-5-one]", "pEC50": 7.23}
{"smiles": "Cc1cn2nc(-c3cc(=O)n4cc(N5CCNCC5)sc4n3)cc(C)c2n1", "note": "[Example 1, 7-(2,8-dimethylimidazo[1,2-b]pyridazin-6-yl)-2-piperazin-1-yl-thiazolo[3,2-a]pyrimidin-5-one]", "pEC50": 7.34}
{"smiles": "Cc1cn2nc(-c3cc(=O)n4cc([C@H]5C[C@H]6CNC[C@@H](C5)O6)sc4n3)cc(C)c2n1", "note": "[Example 48, 7-(2,8-dimethylimidazo[1,2-b]pyridazin-6-yl)-2-[rac-(1S,5R)-9-oxa-3-azabicyclo[3.3.1]nonan-7-yl]thiazolo[3,2-a]pyrimidin-5-one]", "pEC50": 7.04}
